# Data: paper PMC12010937, “Evaluation of FXR Activity in Pollutants Identified in Sewage Sludge and Subsequent in Vitro and in Vivo Characterization of Metabolic Effects of Triphenyl Phosphate” (Environmental Health Perspectives, 2025)
# Like-named read-outs stand apart in the source and are kept apart here.
# Test system: C57BL/6N mice
# Settings: TPHP-L group, liver
# [1] = adduct [M+Na]+, first of two TG 52:3 lines
# [2] = adduct [M+Na]+, second of two TG 52:3 lines
structure (smiles),measurement,setting,value
"O=P(Oc1ccccc1)(Oc1ccccc1)Oc1ccccc1 [TPHP, triphenyl phosphate]",Z-score of CAR 6:0,adduct [M+H]+,0.06
same,Z-score of CAR 10:0,adduct [M+H]+,0.42
same,Z-score of CAR 12:0,adduct [M+H]+,0.80
same,Z-score of CAR 16:2,adduct [M+H]+,-0.06
same,Z-score of CAR 18:2,adduct [M+H]+,-0.03
same,Z-score of CAR 18:4,adduct [M+H]+,0.78
same,Z-score of CAR 20:4,adduct [M+H]+,0.82
same,Z-score of NAE 14:0,adduct [M+H]+,-0.48
same,Z-score of NAE 20:5,adduct [M+H]+,1.00
same,Z-score of PC 40:6,adduct [M+H]+,-0.17
same,Z-score of PS 36:4,adduct [M+H]+,0.68
same,Z-score of SM 27:5;O2,adduct [M+H]+,0.55
same,Z-score of SM 28:3;O3,adduct [M+H]+,0.44
same,Z-score of SM 31:3;O3,adduct [M+H]+,-0.11
same,Z-score of SM 41:2;O2,adduct [M+H]+,0.71
same,average intensity of CAR 6:0,adduct [M+H]+,2396721
same,average intensity of CAR 10:0,adduct [M+H]+,1504841
same,average intensity of CAR 12:0,adduct [M+H]+,2823213
same,average intensity of CAR 16:2,adduct [M+H]+,1645671
same,average intensity of CAR 18:2,adduct [M+H]+,11661319
same,average intensity of CAR 18:4,adduct [M+H]+,10920113
same,average intensity of CAR 20:4,adduct [M+H]+,36994205
same,average intensity of NAE 14:0,adduct [M+H]+,681808
same,average intensity of NAE 20:5,adduct [M+H]+,53457329
same,average intensity of PC 40:6,adduct [M+H]+,25730542
same,average intensity of PS 36:4,adduct [M+H]+,1577436
same,average intensity of SM 27:5;O2,adduct [M+H]+,18375860
same,average intensity of SM 28:3;O3,adduct [M+H]+,1750893
same,average intensity of SM 31:3;O3,adduct [M+H]+,1688236
same,average intensity of SM 41:2;O2,adduct [M+H]+,9894007
same,Z-score of BMP 25:4,adduct [M+NH4]+,-0.15
same,Z-score of BMP 30:5,adduct [M+NH4]+,-0.42
same,Z-score of BMP 38:4,adduct [M+NH4]+,-0.33
same,Z-score of PG 21:2,adduct [M+NH4]+,-0.09
same,Z-score of PI 39:10,adduct [M+NH4]+,-0.15
same,Z-score of TG 48:11,adduct [M+NH4]+,-0.30
same,Z-score of TG 55:4,adduct [M+NH4]+,-0.04
same,average intensity of BMP 25:4,adduct [M+NH4]+,28243710
same,average intensity of BMP 30:5,adduct [M+NH4]+,997136
same,average intensity of BMP 38:4,adduct [M+NH4]+,9007436
same,average intensity of PG 21:2,adduct [M+NH4]+,4648685
same,average intensity of PI 39:10,adduct [M+NH4]+,2117103
same,average intensity of TG 48:11,adduct [M+NH4]+,18422444
same,average intensity of TG 55:4,adduct [M+NH4]+,5767515
same,Z-score of Cer 42:1;O2,adduct [M+Na]+,-0.14
same,Z-score of Cer 64:6;O2,adduct [M+Na]+,0.49
same,Z-score of DG 19:1,adduct [M+Na]+,-0.58
same,Z-score of DG 26:5,adduct [M+Na]+,-0.57
same,Z-score of DG 26:6,adduct [M+Na]+,-0.39
same,Z-score of PC 29:5,adduct [M+Na]+,-0.26
same,Z-score of PC 38:6,adduct [M+Na]+,-0.37
same,Z-score of PC 42:9,adduct [M+Na]+,-0.33
same,Z-score of PS 40:7,adduct [M+Na]+,0.24
same,Z-score of TG 52:2,adduct [M+Na]+,0.37
same,Z-score of TG 52:4,adduct [M+Na]+,0.20
same,average intensity of Cer 42:1;O2,adduct [M+Na]+,2208919
same,average intensity of Cer 64:6;O2,adduct [M+Na]+,16081083
same,average intensity of DG 19:1,adduct [M+Na]+,5508
same,average intensity of DG 26:5,adduct [M+Na]+,1202226
same,average intensity of DG 26:6,adduct [M+Na]+,565410
same,average intensity of PC 29:5,adduct [M+Na]+,8118187
same,average intensity of PC 38:6,adduct [M+Na]+,13132954
same,average intensity of PC 42:9,adduct [M+Na]+,1167997
same,average intensity of PS 40:7,adduct [M+Na]+,3607887
same,average intensity of TG 52:2,adduct [M+Na]+,9167552
same,average intensity of TG 52:4,adduct [M+Na]+,2497450
same,Z-score of TG 52:3,[1],0.19
same,average intensity of TG 52:3,[1],1036928
same,Z-score of TG 52:3,[2],0.18
same,average intensity of TG 52:3,[2],8512501
same,Z-score of Cer 40:1;O2,adduct [M-H]-,-0.23
same,Z-score of Cer 41:1;3O(2OH),adduct [M-H]-,-0.38
same,Z-score of Cer 42:1;3O(2OH),adduct [M-H]-,-0.39
same,Z-score of Cer 43:1;3O(2OH),adduct [M-H]-,-0.38
same,Z-score of FA 10:1,adduct [M-H]-,-0.53
same,Z-score of FA 14:2,adduct [M-H]-,0.22
same,Z-score of FA 16:2;O,adduct [M-H]-,0.94
same,Z-score of FA 19:2;O2,adduct [M-H]-,0.68
same,Z-score of PG 34:2,adduct [M-H]-,-0.56
same,Z-score of PG 44:12,adduct [M-H]-,-0.57
same,Z-score of PI 36:3,adduct [M-H]-,-0.53
same,Z-score of PI 38:4,adduct [M-H]-,0.83
same,average intensity of Cer 40:1;O2,adduct [M-H]-,383914
same,average intensity of Cer 41:1;3O(2OH),adduct [M-H]-,1471085
same,average intensity of Cer 42:1;3O(2OH),adduct [M-H]-,280519
same,average intensity of Cer 43:1;3O(2OH),adduct [M-H]-,206714
same,average intensity of FA 10:1,adduct [M-H]-,231265
same,average intensity of FA 14:2,adduct [M-H]-,1600712
same,average intensity of FA 16:2;O,adduct [M-H]-,1172357
same,average intensity of FA 19:2;O2,adduct [M-H]-,7389373
same,average intensity of PG 34:2,adduct [M-H]-,228532
same,average intensity of PG 44:12,adduct [M-H]-,36906
same,average intensity of PI 36:3,adduct [M-H]-,498699
same,average intensity of PI 38:4,adduct [M-H]-,49874871
